In article PMC7195552 (Journal of Burn Care & Research: Official Publication of …, 2020):
Read-outs that look alike come from different tables or passages of the source.

What was measured:
[1] = Plasma pharmacokinetics of daptomycin in patients with severe burn injuries (LC-MS/MS, DAS 2.0); type: in vivo, human; settings: for half-life: read-out: t(h)½ (converted)
Description: Multiple-dose medication treatment means that daptomycin was administered to burn injury patients as one injection every day of either the standard dose or a high dose. […] During intravenous infusion, vigorous agitation or shaking during drug dissolution was not permitted, thus preventing the formation of gas bubbles. […] The samples were centrifuged and stored at −80°C until required for analysis. PK evaluation was performed by measuring the daptomycin levels in blood samples, using liquid chromatography–mass spectrometry/mass spectrometry (LC-MS/MS) (Waters Micromass Quattro Micro API LC-MS/MS). Chromatographic separation was performed at 35°C using a RP-C18 (Welch Ultimate, 3.0 mm × 150 mm) analytical column. […] PK parameters were calculated using DAS 2.0. […] The maximum plasma concentration (Cmax) and the time at which it occurred (Tmax) were determined directly from the measured plasma concentration–time without interpolation. […] The total body clearance (CL) was obtained from dose/AUC0–∞. The volume of distribution (Vd) was calculated using the equation CL/Ke.

[2] = Creatine phosphokinase levels and adverse events during daptomycin treatment; type: in vivo, human
From the text: The level returned to a normal value without discontinuation of daptomycin treatment. There were no significant CPK differences in the indicated time points between the groups (Table 8).

[3] = Hepatorenal function index of patients after daptomycin medication; settings: 12 mg/kg/d, average ± SD n = 7, patients received supplemental plasma albumin
Description: All statistical analyses were conducted using SAS™ 9.3 software (Cary, NC) and a P value <.05 was considered to be statistically significant.

[4] = patient 1, 12 mg/kg/d iv, multiple dose
[5] = patient 1, 12 mg/kg/d iv, single dose
[6] = patient 2, 12 mg/kg/d iv, multiple dose
[7] = patient 2, 12 mg/kg/d iv, single dose
[8] = patient 3, 12 mg/kg/d iv, multiple dose
[9] = patient 3, 12 mg/kg/d iv, single dose
[10] = patient 4, 12 mg/kg/d iv, multiple dose
[11] = patient 4, 12 mg/kg/d iv, single dose
[12] = patient 5, 12 mg/kg/d iv, multiple dose
[13] = patient 5, 12 mg/kg/d iv, single dose
[14] = patient 6, 12 mg/kg/d iv, multiple dose
[15] = patient 6, 12 mg/kg/d iv, single dose
[16] = patient 7, 12 mg/kg/d iv, multiple dose
[17] = patient 7, 12 mg/kg/d iv, single dose
[18] = patient 8, 6 mg/kg/d iv, multiple dose
[19] = patient 8, 6 mg/kg/d iv, single dose
[20] = patient 9, 6 mg/kg/d iv, multiple dose
[21] = patient 9, 6 mg/kg/d iv, single dose
[22] = patient 10, 6 mg/kg/d iv, multiple dose
[23] = patient 10, 6 mg/kg/d iv, single dose

**Q.** Which results are given for `CCCCCCCCCC(=O)N[C@@H](Cc1c[nH]c2ccccc12)C(=O)N[C@H](CC(N)=O)C(=O)N[C@@H](CC(=O)O)C(=O)N[C@@H]1C(=O)NCC(=O)N[C@@H](CCCN)C(=O)N[C@@H](CC(=O)O)C(=O)N[C@H](C)C(=O)N[C@@H](CC(=O)O)C(=O)NCC(=O)N[C@H](CO)C(=O)N[C@@H]([C@H](C)CC(=O)O)C(=O)N[C@@H](CC(=O)c2ccccc2N)C(=O)O[C@@H]1C` [daptomycin]?
**A.** CL ([1]; 6 mg/kg/d iv, multiple dose (day 6), average ± SD n = 3, SD): 0.412 ± 0.197 mL/min/kg; V d ([1]; 12 mg/kg/d iv, multiple dose (day 6), average ± SD n = 7, SD): 0.24 ± 0.11 L/kg; Tmax ([1]; human, in vivo, iv, 6 mg/kg): ~2 h; half-life ([1]; human, in vivo, iv, 6 mg/kg/d, 6 mg/kg/d iv, multiple dose (day 6), average ± SD n = 3, SD): 6.47 ± 1.34 h; half-life ([1]; human, in vivo, iv, 6 mg/kg/d, 6 mg/kg/d iv, single dose, average ± SD n = 3, SD): 5.64 ± 1 h; clearance ([1]; human, in vivo, iv, 12 mg/kg/d, 12 mg/kg/d iv, single dose, average ± SD n = 7, SD, read-out: CL (converted)): 0.375 mL/min/kg; half-life ([1]; human, in vivo, iv, 12 mg/kg/d, 12 mg/kg/d iv, single dose, average ± SD n = 7, SD): 7.4 ± 2.5 h; V d ([1]; human, in vivo, iv, V d, SD): 0.24 ± 0.1 L/kg; V d ([1]; human, in vivo, iv, SD): 0.19 ± 0.1 L/kg; clearance ([1]; human, in vivo, iv, SD): 0.403 mL/min/kg; AUC(0-t) ([1]; human, in vivo, 6 mg/kg/d iv, single dose, average ± SD n = 3, SD, read-out: AUC0–24): 255 ± 51.6 µg·h/mL; clearance ([1]; human, in vivo, 12 mg/kg/d iv, multiple dose (day 6), average ± SD n = 7, SD, read-out: CL (converted)): 0.33 mL/min/kg; t(h)½ ([1]; multiple doses, independent of the dose received (all patients)): 8.10 ± 1.91 h; AUC0–24 [1, 4]: 588.2 µg·h/mL; CL [1, 4]: 0.34 mL/min/kg; V d [1, 4]: 0.26 L/kg; t(h)½ [1, 4]: 8.8 h; AUC0–24 [1, 5]: 486.9 µg·h/mL; CL [1, 5]: 0.365 mL/min/kg; V d [1, 5]: 0.26 L/kg; AUC0–24 [1, 6]: 679.0 µg·h/mL; CL [1, 6]: 0.2945 mL/min/kg; V d [1, 6]: 0.22 L/kg; t(h)½ [1, 6]: 8.5 h; AUC0–24 [1, 7]: 511.2 µg·h/mL; CL [1, 7]: 0.36 mL/min/kg; V d [1, 7]: 0.21 L/kg; t(h)½ [1, 7]: 0.5 h; AUC0–24 [1, 8]: 580.7 µg·h/mL; CL [1, 8]: 0.3443 mL/min/kg; V d [1, 8]: 0.20 L/kg; t(h)½ [1, 8]: 6.7 h; AUC0–24 [1, 9]: 426.7 µg·h/mL; CL [1, 9]: 0.423 mL/min/kg; V d [1, 9]: 0.25 L/kg; t(h)½ [1, 9]: 0.5 h; AUC0–24 [1, 10]: 709.6 µg·h/mL; CL [1, 10]: 0.2818 mL/min/kg; V d [1, 10]: 0.16 L/kg; t(h)½ [1, 10]: 6.6 h; AUC0–24 [1, 11]: 477.6 µg·h/mL; CL [1, 11]: 0.388 mL/min/kg; V d [1, 11]: 0.29 L/kg; t(h)½ [1, 11]: 0.5 h; AUC0–24 [1, 12]: 987.6 µg·h/mL; CL [1, 12]: 0.2025 mL/min/kg; V d [1, 12]: 0.10 L/kg; t(h)½ [1, 12]: 5.7 h; AUC0–24 [1, 13]: 809.9 µg·h/mL; CL [1, 13]: 0.235 mL/min/kg; V d [1, 13]: 0.10 L/kg; t(h)½ [1, 13]: 1.5 h; AUC0–24 [1, 14]: 489.1 µg·h/mL; CL [1, 14]: 0.4088 mL/min/kg; V d [1, 14]: 0.32 L/kg; t(h)½ [1, 14]: 9.1 h; AUC0–24 [1, 15]: 439.4 µg·h/mL; CL [1, 15]: 0.445 mL/min/kg; V d [1, 15]: 0.15 L/kg; t(h)½ [1, 15]: 0.5 h; AUC0–24 [1, 16]: 456.2 µg·h/mL; CL [1, 16]: 0.4383 mL/min/kg; V d [1, 16]: 0.43 L/kg; t(h)½ [1, 16]: 11.3 h; AUC0–24 [1, 17]: 399.0 µg·h/mL; CL [1, 17]: 0.405 mL/min/kg; V d [1, 17]: 0.41 L/kg; t(h)½ [1, 17]: 0.5 h; AUC0–24 [1, 18]: 394.7 µg·h/mL; CL [1, 18]: 0.2928 mL/min/kg; V d [1, 18]: 0.15 L/kg; t(h)½ [1, 18]: 6.093 h; AUC0–24 [1, 19]: 273.7 µg·h/mL; CL [1, 19]: 0.3653 mL/min/kg; V d [1, 19]: 0.14 L/kg; t(h)½ [1, 19]: 4.97 h; AUC0–24 [1, 20]: 249.5 µg·h/mL; CL [1, 20]: 0.6387 mL/min/kg; V d [1, 20]: 0.44 L/kg; t(h)½ [1, 20]: 7.958 h; AUC0–24 [1, 21]: 197.0 µg·h/mL; CL [1, 21]: 0.5075 mL/min/kg; V d [1, 21]: 0.27 L/kg; t(h)½ [1, 21]: 6.737 h; AUC0–24 [1, 22]: 330.3 µg·h/mL; CL [1, 22]: 0.3027 mL/min/kg; V d [1, 22]: 0.14 L/kg; t(h)½ [1, 22]: 5.349 h; AUC0–24 [1, 23]: 295.2 µg·h/mL; CL [1, 23]: 0.3387 mL/min/kg; V d [1, 23]: 0.15 L/kg; t(h)½ [1, 23]: 5.377 h; serious adverse events or treatment discontinuations ([2]; 12 mg/kg/d iv once daily, entire study period): no serious adverse events or treatment discontinuations; CPK adverse reaction ([2]; patient no. 3, high-dose, day 3, returned to normal without discontinuation): transient increase of CPK; serious adverse events and nonserious AEs leading to discontinuation ([2]; whole study, 6 or 12 mg/kg/d for 7 to 14 days, 10 patients): No serious adverse events; Alb after daptomycin treatment (7 days) [3]: 40.5 ± 4.6 g/L
